pIC50: −log10 of the molar value.
Legend:
MCF-7 cells [1] = experiment: In vitro cytotoxicity by MTT assay, MCF-7 cells
Procedure: The cells without any treatment were used as the control.
The cells were seeded into 96-well plates at 1×10^4 cells per well in 200 μL of culture medium. […] The cells without the treatment were used as control. The cells were grown for another 72 h. Then, 20 μL of 5 mg mL^−1 MTT assay stock solution in PBS was added to each well. After the cells were incubated for 4 h, the medium containing unreacted MTT was carefully removed. Then, the obtained blue formazan crystals were dissolved in 200 μL well^−1 DMSO, and the absorbance was measured in a BioTek Synergy H4 hybrid reader at a wavelength of 490 nm. The blank was subtracted to the measured optical density (OD) values, and the cell viability was expressed as % of the values obtained for the untreated control cells.

MCF-7 tumor [2] = type: in vivo, Balb/c female nude mice; conditions: for tumor inhibitory rate (TIR): from tumor weight versus PBS group, 24 days
Procedure: Tumor volume and body weight of tumor-bearing mice were monitored every 3 days within 24 days. […] The tumor inhibitory rate (TIR) was calculated from tumor weight.
Study protocols involving animals were approved by the Animal Ethics Committee of Shanghai Jiao Tong University School of Medicine. SD rats (˜200 g) and 72 Balb/c female nude mice (4 weeks of age) were supplied by Chinese Academy of Sciences (Shanghai). The female nude mice were injected subcutaneously in the right flank region with 200 μL of cell suspension containing 4×10^6 MCF-7 cells. The tumors were allowed to grow to ˜200 mm^3 before experimentation.
Each mouse of different group was earmarked and followed individually throughout the whole experiments. The length and width of the tumor and the body weight of mice were measured before every injection by the end of experiment. Tumor volume (V) was calculated using the formula: V (mm^3)=½×length (mm)×width (mm)^2. After 24 days postinjection, mice were sacrificed, and tumors were separated, weighted and photographed. In addition, the tumors were cut into small pieces, fixed in 10% formalin and embedded in paraffin. Then the tissues embedded in paraffin were sectioned for histopathological analysis with H&E staining.

MCF-7 cells [3] = experiment: Cell cycle assay (PI staining, flow cytometry); type: cell-based, human; conditions: 30 μM, 24 h
Procedure: MCF-7 cells were seeded in 6-well plates at 5.0×10^5 cells per well in 2 mL of complete DMEM and cultured for 24 h. […] MCF-7 cells without the treatment were used as a control. For quantitative measurement of apoptosis, treated cells were harvested and washed twice with ice-cold PBS, stained with Alexa Fluor® 488 annexin V and PI according to the manufacturer's instructions. For cell cycle determination, treated cells were collected, washed for twice with ice-cold PBS, fixed with 70% ethanol at 4° C. overnight and treated with Rnase A for 45 min at 37° C., followed by PI staining for 30 min in the dark. Both cell apoptosis and cycle were analyzed by flow cytometry (BD FACSCalibur, USA), and […] per sample were counted.

caspase-3 = experiment: Western blot analysis of caspase-3 expression; type: cell-based, human; conditions: MCF-7 cells, 30 μM, 24 h
Procedure: The untreated MCF-7 cells were used as a negative control.
MCF-7 cells were seeded in 6-well plates at a density of 5.0×10^5 cells per well in 2 mL of complete DMEM and allowed to attach for 24 h. […] MCF-7 cells untreated were used as a negative control. After treatment for 24 h, the MCF-7 cells were harvested. The cellular proteins were extracted in Laemmli buffer and the protein content in the extracts was quantified using a bicinchoninic acid (BCA) protein assay kit (Pierce, USA). Equal amounts of proteins (30 μg lane^−1) were separated on sodium dodecyl sulfate-polyacrylamide gels (SDS-PAGE) and electrotransferred to 0.22 μm polyvinylidene fluoride (PVDF) membranes. The membranes were then blocked with 5% non-fat dry milk in TBST (Tris buffered saline supplemented with 0.05% Tween-20) and probed with antibodies against β-actin (1:1,000 dilution), caspase-3 (1:1,000 dilution) followed by HRP-conjugated (HRP: horseradish peroxidase) anti-rabbit immunoglobulin-G (IgG, 1:5,000 dilution). β-Actin was used as the loading control. Protein bands were detected using Chemiluminescent HRP Substrate (Themo Scientific, USA) according to the manufacture's protocol and analyzed using the ChemiDoc™ MP Imaging System (Bio-Rad, USA).

[4] = In vivo biodistribution in MCF-7 tumor-bearing mice; set-up: species or system Balb/c female nude mice; conditions: MCF-7 tumor-bearing nude mice, i.v.; Cb 3.5, Ir 6.7, Ir-Cb nanoparticles 10 mg kg^−1
Procedure: Furthermore, to examine the amount of Ir-Cb ADDC in the tumors and other organs, the MCF-7 tumor-bearing mice were sacrificed after intravenous injection with different time intervals. The tumor-bearing mice treated with free Cb and Ir were used as controls. […] After injection for 6 h, the content of Ir-Cb ADDC obviously decreases in kidney, spleen and lung, whereas the downward trend in tumor and liver is slower (FIG. 13b). […] After 6 h, the Ir concentration in spleen and lung decreases quickly.
The biodistribution of Cb, Ir and Ir-Cb nanoparticles was analyzed in Balb/c female nude mice bearing MCF-7 tumors. The MCF-7 tumor-bearing mice were intravenously injected via tail vein with Cb, Ir and Ir-Cb nanoparticles at a dose of Cb (3.5 mg kg^−1), Ir (6.7 mg kg^−1) and Ir-Cb nanoparticles (10 mg kg^−1). Mice were sacrificed by cervical vertebra dislocation at 30 min, 1 h and 6 h after drug administration (n=3 at each time point), and the heart, liver, spleen, lung, kidney and tumor were collected. Tissue samples were rinsed in saline, blotted using paper towel, weighed and stored at −80° C. before being homogenized. Cb, Ir and Ir-Cb were extracted from the homogenate using 2 mL of dichloromethane and methanol (4:1, v/v). The organic phases were collected and dried, and the samples were dissolved in acetonitrile for analysis.

MCF-7 cells [5] = type: cell-based, human; conditions: 30 μM, 24 h
Procedure: The untreated cells were used as control.
MCF-7 cells were seeded in 6-well plates at 5.0×10^5 cells per well in 2 mL of complete DMEM and cultured for 24 h. […] MCF-7 cells without the treatment were used as a control. […] For cell cycle determination, treated cells were collected, washed for twice with ice-cold PBS, fixed with 70% ethanol at 4° C. overnight and treated with Rnase A for 45 min at 37° C., followed by PI staining for 30 min in the dark.

[6] = Pharmacokinetic study (blood retention) after i.v. injection; conditions: rats, 8 mg kg^−1, 12 h
Procedure: The blood samples (0.5 mL) were taken from the eye socket at the 5 min, 15 min, 30 min, 1 h, 2 h, 4 h, 6 h, 8 h, and 12 h time points after injection. The plasma was obtained by centrifugation at 3,000 rpm for 10 min and stored at −20° C. A 200 μL of plasma was treated two times with 250 μL of acetonitrile and methanol mixture (1:1 v/v). The solvent solutions separated by centrifugation were pooled.

[7] = Critical aggregation concentration (CAC) measurement with pyrene fluorescent probe; type: physicochemical; conditions: in water, pyrene I3/I1
Procedure: To investigate the self-assembly behavior of Ir-Cb ADDC in water, the critical aggregation concentration (CAC) was measured by using pyrene as a fluorescent probe. I1 and I3 are the emission intensities of the first and third bands in the fluorescence spectrum of pyrene respectively, which are labeled as 1 and 3 in the inset of FIG. 7c. The emission intensity ratio of I3/I1 is very sensitive to the polarity of the medium surrounding pyrene molecules. (Kwon, et al. 1993 Langmuir 9, 945-949.) The higher polarity of the medium, the lower the intensity ratio is. The relationship of the I3/I1 ratio with the Ir-Cb ADDC concentration is present in FIG. 7c. At low Ir-Cb ADDC concentration, the I3/I1 value remains nearly unchanged, indicating the characteristics of pyrene in water environment. With increasing Ir-Cb ADDC concentration, the ratio of I3/I1 starts to increase dramatically and reaches the characteristic level of pyrene in hydrophobic environment at a certain Ir-Cb ADDC concentration. According to the inflexion of the curve, the CAC value of the Ir-Cb ADDC is about 7 μg mL^−1.
To determine the CAC value of the Ir-Cb ADDC, pyrene was used as the fluorescence probe. […] The fluorescence emission spectra of all samples were recorded on a LS-50B luminescence spectrometer (Perkin Elmer Co.) at 335 nm excitation wavelength and 8 nm slit width. The I3/I1 values of all solution were recorded.

MCF-7 tumor [8] = experiment: Immunohistochemical analysis of tumor tissues (H&E, PCNA); type: in vivo, Balb/c female nude mice; conditions: MCF-7 tumors after treatment
Procedure: 3 days after the last injection, mice were sacrificed and tumor tissues were excised. The tissues were fixed in 10% formalin and embedded in paraffin. The paraffin-embedded 5 μm tumor sections were analyzed by immunohistochemical analysis for PCNA expression. To analyze the PCNA, endogenous peroxidase activity was inhibited by 3% hydrogen peroxide aqueous solution for 10 min, and the sections were heated to boiling in 0.01 M sodium citrate buffer (pH 6.0) for 10 min in the microwave oven for antigen retrieval and repeated boiling process for once. Subsequently, the sections were allowed to cool in the same buffer, rinsed twice with PBS for 5 min and then incubated with PCNA antibody (Boster, China, 1:200) for 30 min at room temperature and then at 4° C. overnight. After washing, sections were incubated with biotinylated secondary antibodies for 20 min at 37° C. Finally, a streptavidin-biotin complex was applied and the immunoreactivity was visualized with diaminobenzidine as a chromogen. The sections were imaged by using Olympus Fluorescence Microscope (Olympus BX61). […]
Each mouse of different group was earmarked and followed individually throughout the whole experiments. The length and width of the tumor and the body weight of mice were measured before every injection by the end of experiment. Tumor volume (V) was calculated using the formula: V (mm^3)=½×length (mm)×width (mm)^2. […]

[9] = Self-assembly of Ir-Cb ADDC in water: size and morphology by DLS and TEM; type: physicochemical
Procedure: The inherent amphiphilicity of the Ir-Cb ADDC provides an opportunity for itself to self-assemble into nanoparticles in water. To determine the size and morphology of the self-assembled nanoparticles, a dimethylsulfoxide (DMSO) solution of the Ir-Cb ADDC was added dropwise into water, followed by dialysis against water to remove DMSO. A stable and bluish solution with the final Ir-Cb conjugate concentration of 0.5 mg mL^−1 was obtained. FIG. 7a gives the dynamic light scattering (DLS) curve of Ir-Cb ADDC aqueous solution with a concentration of 0.5 mg mL^−1, indicating the formation of aggregates with a narrow unimodal distribution and an average hydrodynamic diameter of approximate 88.3 nm. The morphology of the aggregates was observed by transmission electron microscopy (TEM). […] This size is slightly smaller than that measured by DLS due to the shrinkage of nanoparticles in a drying state during TEM sample preparation. […]
^1H and ^13C nuclear magnetic resonance (^1H NMR and ^13C NMR) spectra were recorded using a Varian Mercury Plus 400 MHz spectrometer. Fourier transform infrared (FTIR) spectra were recorded on a Paragon 1,000 instrument by KBr sample holder method. […] All samples were measured at a scattering angle of 90°. […] Ultraviolet-visible (UV-Vis) absorption of the sample solutions was measured at room temperature by using a Thermo Electron-EV300 UV-Vis spectrophotometer. […]

MCF-7/ADR cells = experiment: Accumulation and efflux assay in MCF-7 and MCF-7/ADR cells (flow cytometry); type: cell-based, human; conditions: 30 μM, 1-4 h incubation
Procedure: The fluorescent intensity was calculated by CellQuest software, and blanked by untreated cells.

[10] = In vitro drug release by dialysis in buffered solutions; conditions: pH 5.0, 37° C.

In the case of CCc1c2c(nc3ccc(OC(=O)N4CCC(N5CCCCC5)CC4)cc13)-c1cc3c(c(=O)n1C2)COC(=O)[C@]3(O)CC [Ir, irinotecan], the pIC50 (MCF-7 cells [1]; Homo sapiens, MCF7, 72 h) was roughly 5.30, the “cytotoxicity compared with free Cb” value (MCF-7 cells [1]; MCF-7 cells) was “much higher than that of free Cb” and the “tumor inhibitory rate (TIR)” value (MCF-7 tumor [2]) was 42.3±6.63%. The “percentage of G0/G1 phase” value (MCF-7 cells [3]) was 34.25%, the “percentage of G2/M” value (MCF-7 cells [3]) was 27.81% and the “percentage of S” value (MCF-7 cells [3]) was 37.93%. The “caspase-3 protein expression versus untreated control” value (caspase-3) was “up-regulated slightly” and the tissue distribution [4] was “mainly accumulates in liver, followed by spleen, lung, kidney and heart up to 2 h”.

With O=C(O)CCCc1ccc(N(CCCl)CCCl)cc1 [Cb, chlorambucil] the “tumor volume compared with the PBS group” value (MCF-7 tumor [2]; after 24 days treatment, i.v. once every 3 days) was 91.60±2.09%, the “tumor inhibitory rate (TIR)” value (MCF-7 tumor [2]) was 9.3±2.10% and the “ratio of apoptosis cells” value (MCF-7 cells [5]) was 18.02%. The “plasma concentration after 12 h relative to Ir-Cb ADDC” value [6] was “one twenty-fifth”, the “caspase-3 protein expression versus untreated control” value (caspase-3) was “up-regulated slightly” and the tissue distribution [4] was “largely accumulates in liver, followed by spleen, lung, heart and kidney”.

With CCc1c2c(nc3ccc(OC(=O)N4CCC(N5CCCCC5)CC4)cc13)-c1cc3c(c(=O)n1C2)COC(=O)[C@@]3(CC)OC(=O)CCCc1ccc(N(CCCl)CCCl)cc1 [Ir-Cb ADDC] the “critical aggregation concentration (CAC)” value [7] was “about 7 μg mL^−1”, the “H&E histology of tumor tissue” value (MCF-7 tumor [8]) was “large necrotic area is observed” and the “anticancer efficiency compared with free Ir and Ir/Cb mixture” value (MCF-7 cells [1]; MCF-7 cells, concentration higher than the CAC value) was “much better anticancer efficiency than free Ir and Ir/Cb mixture”. The “antitumor activity compared with free Ir and Ir/Cb mixture” value (MCF-7 cells [1]; MCF-7 cells, drug concentration lower than the CAC value) was “worse than that of free Ir and Ir/Cb mixture”, the “average hydrodynamic diameter (Dh) by DLS” value ([9]; aqueous solution 0.5 mg mL^−1) was roughly 88.3 nm and the “average size of spherical nanoparticles by TEM” value ([9]; dried state) was roughly 75.7 nm. The “accumulation in MCF-7/ADR cells compared with that in MCF-7 cells” value (MCF-7/ADR cells) was “about ½”, the tissue distribution [4] was “accumulate in liver, spleen, kidney, lung and tumor at first 2 h” and the “Ir release / hydrolysis at pH 5.0” value [10] was “hydrolysis of Ir-Cb ADDC is accelerated”.
